Assay results published in the NIST ThermoML archive (doi:10.1016/j.jct.2018.08.005).

Assay: xn = mol fraction of the nth substance listed
Settings: Liquid; for speed of sound: Frequency=3 MHz, Pulse-echo method; for mass density: Vibrating tube method

CCOC(F)(C(F)(F)C(F)(F)C(F)(F)F)C(F)(C(F)(F)F)C(F)(F)F (stereo not given) [2-trifluoromethyl-3-ethoxydodecafluorohexane] + CC(C)OC(C)C
Settings | mass density, x1 = 0.25 [kg/m3] | mass density, x1 = 0.375 [kg/m3] | mass density, x1 = 0.5 [kg/m3] | mass density, x1 = 0.625 [kg/m3] | mass density, x1 = 0.75 [kg/m3] | speed of sound, x1 = 0.25 [m/s] | speed of sound, x1 = 0.375 [m/s] | speed of sound, x1 = 0.5 [m/s] | speed of sound, x1 = 0.625 [m/s] | speed of sound, x1 = 0.75 [m/s]
293.15 K, 100 kPa | 1053.2 | 1178.3 | 1289.5 | 1391.2 | 1478.4 | 802 | 756.1 | 719.2 | 701.5 | 686.9
293.15 K, 10000 kPa | 1071 | 1197.9 | 1310.6 | 1413.6 | 1501.4 | – | – | – | – | –
293.15 K, 20000 kPa | 1086.1 | 1214.9 | 1328.9 | 1432.8 | 1521.4 | 930.1 | 879 | 839 | 818.1 | 799.8
293.15 K, 30000 kPa | 1099.4 | 1229.8 | 1344.9 | 1449.9 | 1539 | – | – | – | – | –
293.15 K, 40000 kPa | 1111.2 | 1243.1 | 1359.3 | 1465.1 | 1554.8 | 1029.9 | 975.3 | 933 | 909.4 | 888.3
293.15 K, 50000 kPa | 1122.1 | 1255.2 | 1372.4 | 1479 | 1569.2 | – | – | – | – | –
293.15 K, 60000 kPa | 1132.1 | 1266.3 | 1384.4 | 1491.7 | 1582.4 | 1113.8 | 1056.9 | 1012.2 | 988 | 963.7
293.15 K, 70000 kPa | 1141.5 | 1276.8 | 1395.6 | 1503.7 | 1594.8 | – | – | – | – | –
293.15 K, 80000 kPa | 1150.2 | 1286.4 | 1406.1 | 1514.7 | 1606.3 | 1187.2 | 1127.9 | 1081.1 | 1056.3 | 1029.1
293.15 K, 90000 kPa | 1158.4 | 1295.5 | 1416 | 1525.1 | 1617.1 | – | – | – | – | –
293.15 K, 100000 kPa | 1166.2 | 1304.3 | 1425.3 | 1535 | 1627.3 | 1254 | 1190.8 | 1143 | 1116.9 | 1088.5
293.15 K, 110000 kPa | 1173.5 | 1312.4 | 1434.1 | 1544.3 | 1637.1 | – | – | – | – | –
293.15 K, 120000 kPa | 1180.7 | 1320.3 | 1442.6 | 1553.2 | 1646.4 | – | – | – | – | –
293.15 K, 130000 kPa | 1187.4 | 1327.8 | 1450.7 | 1561.8 | 1655.3 | – | – | – | – | –
293.15 K, 140000 kPa | 1193.8 | 1335.1 | 1458.3 | 1569.9 | 1663.8 | – | – | – | – | –
303.15 K, 100 kPa | 1038.3 | 1161.8 | 1271.6 | 1372.4 | 1458.7 | 763.8 | – | 687.9 | 670.9 | 656
303.15 K, 10000 kPa | 1057.2 | 1183 | 1294.5 | 1396.6 | 1483.7 | – | – | – | – | –
303.15 K, 20000 kPa | 1073.6 | 1201.2 | 1314.1 | 1417.3 | 1505.1 | 898.1 | 848.7 | 812.7 | 793.7 | 773.5
303.15 K, 30000 kPa | 1087.7 | 1217 | 1331.1 | 1435.3 | 1523.8 | – | – | – | – | –
303.15 K, 40000 kPa | 1100.3 | 1231.1 | 1346.3 | 1451.3 | 1540.4 | 1001.7 | 948.6 | 909.1 | 889.5 | 864.7
303.15 K, 50000 kPa | 1111.7 | 1243.8 | 1360 | 1465.8 | 1555.5 | – | – | – | – | –
303.15 K, 60000 kPa | 1122.1 | 1255.4 | 1372.6 | 1479.2 | 1569.3 | 1089.1 | 1032.1 | 989.8 | 969.5 | 941.8
303.15 K, 70000 kPa | 1131.8 | 1266.2 | 1384.2 | 1491.4 | 1582.1 | – | – | – | – | –
303.15 K, 80000 kPa | 1140.8 | 1276.1 | 1395.1 | 1502.8 | 1594 | 1164.4 | 1104 | 1059.8 | – | 1008.7
303.15 K, 90000 kPa | 1149.3 | 1285.5 | 1405.2 | 1513.6 | 1605.2 | – | – | – | – | –
303.15 K, 100000 kPa | 1157.3 | 1294.3 | 1414.8 | 1523.7 | 1615.8 | 1231.9 | 1170.1 | 1123 | 1101.7 | 1068.1
303.15 K, 110000 kPa | 1164.9 | 1302.8 | 1423.9 | 1533.3 | 1625.8 | – | – | – | – | –
303.15 K, 120000 kPa | 1172.1 | 1310.8 | 1432.6 | 1542.4 | 1635.3 | – | – | – | – | –
303.15 K, 130000 kPa | 1178.8 | 1318.4 | 1440.8 | 1551.2 | 1644.4 | – | – | – | – | –
303.15 K, 140000 kPa | 1185.4 | 1325.9 | 1448.7 | 1559.5 | 1653.1 | – | – | – | – | –
313.15 K, 100 kPa | 1022.4 | 1144.5 | 1253.4 | 1351.8 | 1438.4 | 729.6 | – | 656.3 | 641.2 | 626.5
313.15 K, 10000 kPa | 1042.9 | 1167.7 | 1278.3 | 1378.1 | 1465.4 | – | – | – | – | –
313.15 K, 20000 kPa | 1060.3 | 1187.2 | 1299.2 | 1400.1 | 1488.1 | 870.2 | 821.7 | 786.8 | 769.5 | 749.4
313.15 K, 30000 kPa | 1075.3 | 1203.9 | 1317.2 | 1419.2 | 1507.8 | – | – | – | – | –
313.15 K, 40000 kPa | 1088.5 | 1218.6 | 1333.1 | 1436 | 1525.3 | 975.8 | 924.1 | 885.6 | 866.8 | 843.3
313.15 K, 50000 kPa | 1100.5 | 1232 | 1347.4 | – | – | – | – | – | – | –
